Data: patent US9718790B2, “Triazine derivative and pharmaceutical composition having an analgesic activity comprising the same” (SHIONOGI & CO., LTD., priority 2010, dated 2017)

Legend:
CYP3A4 = CYP3A4 (Homo sapiens (Human), UniProt P08684); assay: CYP3A4 fluorescent MBI test; type: in vitro ADME; conditions: substrate 7-BFC, pre-reaction time 0 or 30 minutes
Experimental: The CYP3A4 fluorescent MBI test is a test of investigating enhancement or CYP3A4 inhibition of a compound by a metabolism reaction, and the test was performed using, as CYP3A4 enzyme expressed in Escherichia coli and employlng, as an index, a reaction in which 7-benzyloxytrifluoromethylchmarin (BFC) is debenzylated by the CYP3A4 enzyme to produce a metabolite, 7-hydroxytrifluoromethylchmarin (HFC) emitting fluorescent light.
The reaction conditions were as follows: substrate, 5.6 μmol/L 7-BFC; pre-reaction time, 0 or 30 minutes; reaction time, 15 minutes; reaction temperature, 25° C.
An enzyme in a K-Pi buffer (pH 7.4) and a test drug solution as a pre-reaction. solution were added to a 96-well plate at the composition of the pre-reaction, a part of it was transferred to another 96-well plate so that it was 1/10 diluted by a substrate in a K-Pi buffer, NADPH as a co-factor was added to initiate a reaction as an index (without preincubation) and, after a predetermined time of a reaction, acetonitrile:0.5 mol/L Tris (trishydroxyaminomethane)=4:1 was added to stop the reaction. […] For the plate on which each index reaction had been performed, a fluorescent value of 7-HFC which is a metabolite was measured with a fluorescent plate reader. […]

[1] = tested on: partial sciatic nerve ligation model in rats; assay: Analgesic effect in a Seltzer model, Evaluation (1): mechanical allodynia, von Frey filaments; type: in vivo; conditions: rat, oral single administration, at 3 hours, read-out: analgesic effect, percent reversal of mechanical allodynia
Description: Rats were anaesthetized using isoflurane/O2 inhalation anaesthesia. After induction of anesthesia, the left thigh was shaved. An incision was made in the skin just below the hip bone. The muscle was bluntly dissected to expose the sciatic nerve. One third (⅓) to one half (½) of the sciatic nerve thickness was tightly ligated and the wound was closed. The right thigh is used as a sham-operated control. The right thigh undergoes an identical procedure with the left hind limb, however, the sciatic nerve is not manipulated or ligated.
Two weeks after nerve ligation, the effect on mechanical allodynia was assessed using a series of von Frey filaments. For habituation, the rats were placed into a plastic cage on a wire mesh bottom. The mechanical sensitivity (mechanical threshold) of the hind paws was estimated with a series of von Frey filaments (0.4-20 g). The measurement of mechanical sensitivity of the right and left hind paws was performed to obtain predose mechanical sensitivity. The rats showing thee threshold change from 0.6 to 2 g (in nerve ligated side) and 8 to 15 g (in sham operated side) were used in the experiments. On the day belone the experiment, the rats were evaluated with a series of von Frey filaments to familiarize them with the test procedure. The adopted animal was administrated with the test compounds. The test compounds were homogenized with mortar and pestle and suspended or diluted in 0.5% Methyl Cellulose to prepare 0.1-2.0 mg/mL/kg suspension and orally administered to rat using a syringe attached with a sonde. Post-dose mechanical sensitivities of the right and left hind paws were measured at approximately 1 to 5 hours after drug administration. Percent reversal of mechanical allodynia for each rat was calculated using the following formula. The analgesic effects of the compounds were compared.

Sequence of CYP3A4 (P08684 whole entry): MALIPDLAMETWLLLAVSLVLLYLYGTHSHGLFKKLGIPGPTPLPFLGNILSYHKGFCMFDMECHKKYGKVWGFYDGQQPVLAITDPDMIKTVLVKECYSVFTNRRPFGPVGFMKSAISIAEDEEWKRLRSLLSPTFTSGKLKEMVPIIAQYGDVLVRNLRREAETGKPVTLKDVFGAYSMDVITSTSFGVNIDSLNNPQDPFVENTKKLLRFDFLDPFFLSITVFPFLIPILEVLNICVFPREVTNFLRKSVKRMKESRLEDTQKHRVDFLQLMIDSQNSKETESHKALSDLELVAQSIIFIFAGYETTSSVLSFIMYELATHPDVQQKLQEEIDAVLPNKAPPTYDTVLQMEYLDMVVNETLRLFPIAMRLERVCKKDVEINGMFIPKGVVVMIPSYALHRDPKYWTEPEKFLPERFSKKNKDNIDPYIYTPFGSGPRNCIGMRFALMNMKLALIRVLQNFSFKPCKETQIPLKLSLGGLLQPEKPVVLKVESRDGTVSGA

| SMILES | IC50 (CYP3A4) | inhibition in vivo at 3 mg/kg [1] |
| --- | --- | --- |
| C[C@@H](Cn1c(=O)[nH]/c(=N\c2ccc(OCC3CC3)cc2)n(Cc2ccc(Cl)cc2)c1=O)C(=O)O [Compound I-0837] | ≤ 3 µM | – |
| O=c1[nH]/c(=N\c2ccc(Oc3ccon3)cc2)n(Cc2ccc(Cl)cc2)c(=O)n1CC(CO)CO [Compound I-2291] | – | > 30% |
